Results on 36 compounds are retold here after US7112590B2, “Thrombin inhibitors” (LEK Pharmaceuticals d.d., priority 2000, dated 2006).

In general, melting point refers to the temperature, or range, at which the solid turns liquid.

For the compound `Cl.Cl.N[C@H](Cc1ccccc1)C(=O)N1CCC[C@H]1C(=O)NC1CCc2n[nH]cc2C1` (stereo partly drawn), the melting point was 203 to 206 °C. Compound `Cl.Cl.Nc1ncc2c(n1)CCC(NC(=O)[C@@H]1CCCN1C(=O)[C@@H](N)C(c1ccccc1)c1ccccc1)C2` (stereo partly drawn) had a melting point of 212 to 215 °C.

In turn, `Cl.Cl.Nc1ncc2c(n1)CCC(NC(=O)[C@@H]1CCCN1C(=O)[C@H](N)Cc1ccc(Cl)c(Cl)c1)C2` (stereo partly drawn) yielded a melting point of 201 to 204 °C. `Cl.Cl.N[C@H](C(=O)N1CCC[C@H]1C(=O)NC1CCc2n[nH]cc2C1)C(c1ccccc1)c1ccccc1` (stereo partly drawn) returned a melting point of 195 to 198 °C.

`Cl.Cl.N[C@H](Cc1ccc(Cl)c(Cl)c1)C(=O)N1CCC[C@H]1C(=O)NC1CCc2n[nH]cc2C1` (stereo partly drawn) came in with a melting point of 199 to 202 °C. Compound `Cl.Cl.Nc1ncc2c(n1)CCC(NC(=O)[C@@H]1CCCN1C(=O)[C@H](N)C(c1ccccc1)c1ccccc1)C2` (stereo partly drawn) returned a melting point of 199 to 202 °C. As for `Cl.Cl.Nc1nc2c(s1)CC(NC(=O)[C@@H]1CCCN1C(=O)[C@H](N)Cc1ccccc1)CC2` (stereo partly drawn), the melting point is 225 to 228 °C. `Cl.Cl.Nc1nc2c(s1)CC(NC(=O)[C@@H]1CCCN1C(=O)[C@H](N)Cc1ccc(Cl)c(Cl)c1)CC2` (stereo partly drawn) returned a melting point of 166 to 169 °C. With `Cl.Cl.Nc1nc2c(s1)CC(NC(=O)[C@@H]1CCCN1C(=O)[C@@H](N)C(c1ccccc1)c1ccccc1)CC2` (stereo partly drawn) the figure was 155 to 158 °C. Then `Cl.Cl.N[C@@H](C(=O)N1CCC[C@H]1C(=O)NC1CCc2n[nH]cc2C1)C(c1ccccc1)c1ccccc1` (stereo partly drawn), with 190 to 193 °C. Then `Cl.N[C@H](Cc1ccc(Cl)c(Cl)c1)C(=O)N1CCC[C@H]1C(=O)NCC1CCc2n[nH]cc2C1` (stereo partly drawn), with 145 to 148 °C; and `Cl.Cl.Nc1ncc2c(n1)CCC(CNC(=O)[C@@H]1CCCN1C(=O)[C@H](N)Cc1ccc(Cl)c(Cl)c1)C2` (stereo partly drawn), with 169 to 172 °C; and `Cl.Cl.O=C(O)CN[C@H](CC1CCCCC1)C(=O)N1CCC[C@H]1C(=O)NCC1CCc2n[nH]cc2C1` (stereo partly drawn), with 144 to 147 °C. `Cl.Cl.Nc1ncc2c(n1)CCC(CNC(=O)[C@@H]1CCCN1C(=O)[C@H](N)C(c1ccccc1)c1ccccc1)C2` (stereo partly drawn): the melting point lay in the range of 166 to 168 °C.

`Cl.Cl.Nc1nc2c(s1)CC(NC(=O)[C@@H]1CCCN1C(=O)[C@@H](CC1CCCCC1)NCC(=O)O)CC2` (stereo partly drawn) showed a melting point of 180 to 182 °C.

Compound `Cl.Cl.Nc1ncc2c(n1)CCC(NC(=O)[C@@H]1CCCN1C(=O)[C@H](N)Cc1ccccc1)C2` (stereo partly drawn) returned a melting point of 205 to 208 °C. Then `Nc1ncc2c(n1)CCC(NC(=O)[C@@H]1CCCN1C(=O)[C@@H](Cc1ccccc1)NS(=O)(=O)Cc1ccccc1)C2` (stereo partly drawn) [Example 6, (2S)-N-(2-Amino-5,6,7,8-tetrahydro-6-quinazolinyl)-1-{(2R)-2-[(benzylsulfonyl)amino]-3-phenylpropanoyl}-2-pyrrolidinecarboxamide], with 117 to 120 °C; and `CC(C)(C)OC(=O)N[C@H](Cc1ccccc1)C(=O)N1CCC[C@H]1C(=O)NC1CCc2nc(N)ncc2C1` (stereo partly drawn) [Example 7], with 110 to 113 °C; and `O=C(NC1CCc2n[nH]cc2C1)[C@@H]1CCCN1C(=O)[C@@H](Cc1ccccc1)NS(=O)(=O)Cc1ccccc1` (stereo partly drawn) [Example 9, (2S)-1-{(2R)-2-[(Benzylsulfonyl)amino]-3-phenylpropanoyl}-N-(4,5,6,7-tetrahydro-2H-indazol-5-yl)-2-pyrrolidinecarboxamide], with 114 to 116 °C. Then `CC(C)(C)OC(=O)N[C@H](Cc1ccccc1)C(=O)N1CCC[C@H]1C(=O)NC1CCc2n[nH]cc2C1` (stereo partly drawn) [Example 10, tert-Butyl (1R)-1-benzyl-2-oxo-2-{(2S)-2-[(4,5,6,7-tetrahydro-2H-indazol-5-ylamino)carbonyl]pyrrolidinyl}ethylcarbamate], with 108 to 110 °C; and `Nc1ncc2c(n1)CCC(CNC(=O)[C@@H]1CCCN1C(=O)[C@@H](Cc1ccccc1)NS(=O)(=O)Cc1ccccc1)C2` (stereo partly drawn) [Example 12, (2S)-N-[(2-Amino-5,6,7,8-tetrahydro-6-quinazolinyl)methyl]-1-{(2R)-2-[(benzylsulfonyl)amino]-3-phenylpropanoyl}-2-pyrrolidinecarboxamide], with 118 to 121 °C; and `CC(C)(C)OC(=O)N[C@H](C(=O)N1CCC[C@H]1C(=O)NC1CCc2nc(N)ncc2C1)C(c1ccccc1)c1ccccc1` (stereo partly drawn) [Example 13, tert-Butyl (1S)-2-((2S)-2-{[(2-amino-5,6,7,8-tetrahydro-6-quinazolinyl)amino]carbonyl}pyrrolidinyl)-1-benzhydryl-2-oxoethylcarbamate], with 127 to 130 °C. Compound `CC(C)(C)OC(=O)N[C@H](Cc1ccc(Cl)c(Cl)c1)C(=O)N1CCC[C@H]1C(=O)NC1CCc2nc(N)ncc2C1` (stereo partly drawn) [Example 14, tert-Butyl (1R)-2-((2S)-2-{[(2-amino-5,6,7,8-tetrahydro-6-quinazolinyl)amino]carbonyl}pyrrolidinyl)-1-(3,4-dichlorobenzyl)-2-oxoethylcarbamate] had a melting point of 114 to 117 °C. With `CC(C)(C)OC(=O)N[C@H](C(=O)N1CCC[C@H]1C(=O)NC1CCc2n[nH]cc2C1)C(c1ccccc1)c1ccccc1` (stereo partly drawn) [Example 15, tert-Butyl (1S)-1-benzhydryl-2-oxo-2-{(2S)-2-[(4,5,6,7-tetrahydro-2H-indazol-5-ylamino)carbonyl]pyrrolidinyl}ethylcarbamate] the figure was 127 to 130 °C; with `CC(C)(C)OC(=O)N[C@H](Cc1ccc(Cl)c(Cl)c1)C(=O)N1CCC[C@H]1C(=O)NC1CCc2n[nH]cc2C1` (stereo partly drawn) [Example 16, tert-Butyl (1R)-1-(3,4dichlorobenzyl)-2-oxo-2-{(2S)-2-[(4,5,6,7-tetrahydro-2H-indazol-5-ylamino)carbonyl]pyrrolidinyl}ethylcarbamate], 116 to 119 °C; with `Nc1ncc2c(n1)CCC(NC(=O)[C@@H]1CCCN1C(=O)[C@@H](CC1CCCCC1)NS(=O)(=O)Cc1ccccc1)C2` (stereo partly drawn) [Example 21, (2S)-N-(2-Amino-5,6,7,8-tetrahydro-6-quinazolinyl)-1-{(2R)-2-[(benzylsulfonyl)amino]-3-cyclohexylpropanoyl}-2-pyrrolidinecarboxamide], 114 to 117 °C.

For the compound `O=C(NC1CCc2n[nH]cc2C1)[C@@H]1CCCN1C(=O)[C@@H](CC1CCCCC1)NS(=O)(=O)Cc1ccccc1` (stereo partly drawn) [Example 22, (2S)-1-{(2R)-2-[(Benzylsulfonyl)amino]-3-cyclohexylpropanoyl}-N-(4,5,6,7-tetrahydro-2H-indazol-5-yl)-2-pyrrolidinecarboxamide], the melting point lay within 106 to 109 °C. On to `CC(C)(C)OC(=O)N[C@@H](C(=O)N1CCC[C@H]1C(=O)NC1CCc2nc(N)ncc2C1)C(c1ccccc1)c1ccccc1` (stereo partly drawn) [Example 23, tert-Butyl (1R)-2-((2S)-2-{[(2-amino-5,6,7,8-tetrahydro-6-quinazolinyl)amino]carbonyl}pyrrolidinyl)-1-benzhydryl-2-oxoethylcarbamate], for which the melting point fell in the range of 128 to 131 °C.

Take `CC(C)(C)OC(=O)N[C@H](Cc1ccccc1)C(=O)N1CCC[C@H]1C(=O)NC1CCc2nc(N)sc2C1` (stereo partly drawn) [Example 25, tert-Butyl (1R)-2-((2S)-2-{[(2-amino-4,5,6,7-tetrahydro-1,3-benzothiazol-6-yl)amino]carbonyl}pyrrolidinyl)-1-benzyl-2oxoethylcarbamate]: the melting point was 120 to 123 °C. As to `Nc1nc2c(s1)CC(NC(=O)[C@@H]1CCCN1C(=O)[C@@H](Cc1ccccc1)NS(=O)(=O)Cc1ccccc1)CC2` (stereo partly drawn) [Example 27, (2S)-N-(2-amino-4,5,6,7-tetrahydro-1,3-benzothiazol-6-yl)-1-{(2R)-2-[(benzylsulfonyl)amino]-3-phenylpropanoyl}-2-pyrrolidinecarboxamide], the melting point fell in the range of 126 to 129 °C. Then `Nc1nc2c(s1)CC(NC(=O)[C@@H]1CCCN1C(=O)[C@@H](CC1CCCCC1)NS(=O)(=O)Cc1ccccc1)CC2` (stereo partly drawn) [Example 28, (2S)-N-(2-Amino-4,5,6,7-tetrahydro-1,3-benzothiazol-6-yl)-1-{(2R)-2-[(benzylsulfonyl)amino]-3-cyclohexylpropanoyl}-2-pyrrolidinecarboxamide], with 127 to 130 °C; and `Nc1nc2c(s1)CC(NC(=O)[C@@H]1CCCN1C(=O)[C@@H](Cc1ccccc1)NS(=O)(=O)c1ccc3ccccc3c1)CC2` (stereo partly drawn) [Example 30, (2S)-N-(2-Amino-4,5,6,7-tetrahydro-1,3-benzothiazol-6-yl)-1-{(2R)-2-[(2-naphthylsulfonyl)amino]-3-phenylpropanoyl}-2-pyrrolidinecarboxamide], with 128 to 131 °C; and `Nc1nc2c(s1)CC(NC(=O)CNC(=O)[C@@H](Cc1ccccc1)NS(=O)(=O)Cc1ccccc1)CC2` (stereo partly drawn) [Example 31, (2R)-N-{2-[(2-Amino-4,5,6,7-tetrahydro-1,3-benzothiazol-6-yl)amino]-2-oxoethyl}-2-[(benzylsulfonyl)amino]3-phenylpropanamide], with 119 to 122 °C. For `C[C@H](NC(=O)[C@@H](Cc1ccccc1)NS(=O)(=O)Cc1ccccc1)C(=O)NC1CCc2nc(N)sc2C1` (stereo partly drawn) [Example 32, (2R)-N-{(1S)-2-[(2-Amino-4,5,6,7-tetrahydro-1,3-benzothiazol-6-yl)amino]-1-methyl-2-oxoethyl}-2-[(benzylsulfonyl)amino]-3-phenylpropanamide], the melting point was 122 to 125 °C. `Nc1nc2c(s1)CC(NC(=O)[C@@H]1CCCN1C(=O)CNC(c1ccccc1)(c1ccccc1)c1ccccc1)CC2` (stereo partly drawn) [Example 33, (2S)-N-(2-Amino-4,5,6,7-tetrahydro-1,3-benzothiazol-6-yl)-1-[2-(tritylamino)acetyl]-2-pyrrolidinecarboxamide] displayed a melting point of 125 to 128 °C. For `CC(C)(C)OC(=O)N[C@H](Cc1ccc(Cl)c(Cl)c1)C(=O)N1CCC[C@H]1C(=O)NC1CCc2nc(N)sc2C1` (stereo partly drawn) [Example 34, tert-Butyl (1R)-2-((2S)-2-{[(2-amino-4,5,6,7-tetrahydro-1,3-benzothiazol-6-yl)amino]carbonyl}pyrrolidinyl)-1-(3,4-dichlorobenzyl)-2-oxoethylcarbamate], the melting point lay within 116 to 119 °C.
